# Activity calls are given as the source filed them. The calls are words filed in the database; no cut-off is given here.
# Columns and labels:
# [1] = Cytotoxicity against rat IEC-6 cells assessed as cell viability up to 100 uM after 24 to 48 hrs by MTT assay; format: cell-based
# HepG2 [2] = assay: Cytotoxicity against human HepG2 cells up to 100 uM after 24 to 48 hrs by MTT assay; format: functional, cell-based
# HepG2 [3] = assay: Induction of apoptosis in human HepG2 cells assessed as increase of Bax protein expression at IC50 after 48 hrs by Western blotting; format: functional, cell-based
# HepG2 [4] = assay: Induction of apoptosis in human HepG2 cells assessed as late apoptotic cells at IC50 after 48 hrs using Annexin-V-FITC staining by flow cytometer analysis (reference value: 0.5%); format: functional
# HepG2 [5] = assay: Cytotoxicity against human HepG2 cells after 24 to 48 hrs by MTT assay; format: functional, cell-based
# HepG2 [6] = assay: Induction of apoptosis in human HepG2 cells assessed as viable cells at IC50 after 48 hrs using Annexin-V-FITC staining by flow cytometer analysis (reference value: 97.3%); format: functional
# HepG2 [7] = assay: Cytotoxicity against human HepG2 cells after 48 hrs by MTT assay; format: functional, cell-based; settings: HepG2, 48 h
# HepG2 [8] = assay: Induction of apoptosis in human HepG2 cells assessed as increase of cytochrome-c relase at IC50 after 48 hrs by Western blotting; format: functional, cell-based
# HepG2 [9] = assay: Induction of apoptosis in human HepG2 cells assessed as increase of cleaved PARP level at IC50 after 48 hrs by Western blotting; format: functional, cell-based
# HepG2 [10] = assay: Induction of apoptosis in human HepG2 cells assessed as necrotic cells at IC50 after 48 hrs using Annexin-V-FITC staining by flow cytometer analysis (reference value: 1.5%); format: functional
# HepG2 [11] = assay: Induction of apoptosis in human HepG2 cells assessed as increase of cleaved caspase 3/9 level at IC50 after 48 hrs by Western blotting; format: functional, cell-based
# HepG2 [12] = assay: Induction of apoptosis in human HepG2 cells assessed as decrease of Bcl2 protein expression at IC50 after 48 hrs by Western blotting; format: functional, cell-based
# HepG2 [13] = assay: Induction of apoptosis in human HepG2 cells assessed as increase of p53 and p21 protein expression at IC50 after 48 hrs by Western blotting; format: functional, cell-based
# HepG2 [14] = assay: Induction of apoptosis in human HepG2 cells assessed as early apoptotic cells at IC50 after 48 hrs using Annexin-V-FITC staining by flow cytometer analysis (reference value: 0.6%); format: functional
# HepG2 [15] = assay: Cytotoxicity against human HepG2 cells; format: functional
# HeLa = assay: Cytotoxicity against human HeLa cells; format: functional
# COLO 205 [16] = assay: Induction of apoptosis in human COLO205 cells assessed as increase of p21 protein expression at IC50 after 48 hrs by Western blotting; format: functional, cell-based
# COLO 205 [17] = assay: Induction of apoptosis in human COLO205 cells assessed as viable cells at IC50 after 48 hrs using Annexin-V-FITC staining by flow cytometer analysis (reference value: 65.8%); format: functional
# COLO 205 [18] = assay: Induction of apoptosis in human COLO205 cells assessed as decrease of Bcl2 protein expression at IC50 after 48 hrs by Western blotting; format: functional, cell-based
# COLO 205 [19] = assay: Induction of apoptosis in human COLO205 cells assessed as cleaved PARP level at IC50 after 48 hrs by Western blotting; format: functional, cell-based
# COLO 205 [20] = assay: Cytotoxicity against human COLO205 cells after 48 hrs by MTT assay; format: functional, cell-based; settings: for IC50: COLO 205, 48 h
# COLO 205 [21] = assay: Induction of apoptosis in human COLO205 cells assessed as increase of cytochrome-c relase at IC50 after 48 hrs by Western blotting; format: functional, cell-based
# COLO 205 [22] = assay: Induction of apoptosis in human COLO205 cells assessed as increase of Bax protein expression at IC50 after 48 hrs by Western blotting; format: functional, cell-based
# COLO 205 [23] = assay: Induction of apoptosis in human COLO205 cells assessed as activation of caspase-8 at IC50 after 48 hrs by Western blotting; format: functional, cell-based
# COLO 205 [24] = assay: Induction of apoptosis in human COLO205 cells assessed as early apoptotic cells at IC50 after 24 hrs using Annexin-V-FITC staining by flow cytometer analysis (reference value: 0.07%); format: functional
# COLO 205 [25] = assay: Induction of apoptosis in human COLO205 cells assessed as early apoptotic cells at IC50 after 48 hrs using Annexin-V-FITC staining by flow cytometer analysis (reference value: 0.3%); format: functional
# COLO 205 [26] = assay: Induction of apoptosis in human COLO205 cells assessed as late apoptotic cells at IC50 after 48 hrs using Annexin-V-FITC staining by flow cytometer analysis (reference value: 6.5%); format: functional
# COLO 205 [27] = assay: Induction of apoptosis in human COLO205 cells assessed as viable cells at IC50 after 24 hrs using Annexin-V-FITC staining by flow cytometer analysis (reference value: 75.5%); format: functional
# COLO 205 [28] = assay: Induction of apoptosis in human COLO205 cells assessed as activation of caspase-9 at IC50 after 48 hrs by Western blotting; format: functional, cell-based
# COLO 205 [29] = assay: Induction of apoptosis in human COLO205 cells assessed as necrotic cells at IC50 after 48 hrs using Annexin-V-FITC staining by flow cytometer analysis (reference value: 0.5%); format: functional
# COLO 205 [30] = assay: Induction of apoptosis in human COLO205 cells assessed as increase of p53 protein expression at IC50 after 48 hrs by Western blotting; format: functional, cell-based
# COLO 205 [31] = assay: Induction of apoptosis in human COLO205 cells assessed as necrotic cells at IC50 after 24 hrs using Annexin-V-FITC staining by flow cytometer analysis relative to control; format: functional
# COLO 205 [32] = assay: Cytotoxicity against human COLO205 cells after 24 hrs by MTT assay; format: functional, cell-based
# COLO 205 [33] = assay: Induction of apoptosis in human COLO205 cells assessed as cleaved procaspase-3 level at IC50 after 48 hrs by Western blotting; format: functional, cell-based
# COLO 205 [34] = assay: Induction of apoptosis in human COLO205 cells assessed as late apoptotic cells at IC50 after 24 hrs using Annexin-V-FITC staining by flow cytometer analysis (reference value: 0.07%); format: functional
Structure (SMILES),Activity [1],Activity (HepG2 [2]),Activity (COLO 205 [16]),Activity (COLO 205 [17]) [%],Activity (COLO 205 [18]),Activity (COLO 205 [19]),Activity (COLO 205 [20]),IC50 (COLO 205 [20]) [µM],Activity (COLO 205 [21]),Activity (COLO 205 [22]),Activity (COLO 205 [23]),Activity (COLO 205 [24]) [%],Activity (COLO 205 [25]) [%],Activity (COLO 205 [26]) [%],Activity (COLO 205 [27]) [%],Activity (COLO 205 [28]),Activity (COLO 205 [29]) [%],Activity (COLO 205 [30]),Activity (COLO 205 [31]) [%],Activity (COLO 205 [32]),further results
Nc1n[nH]c2c1C(=O)NN=C1c3cc(Cl)ccc3SCC12 (centres undefined),Non-toxic,inactive,,,,,,,,,,,,,,,,,,,
Nc1n[nH]c2c1C(=O)NN=C1c3ccccc3OCCC12 (centres undefined),Non-toxic,,,,,,,,,,,,,,,,,,,,Activity (HepG2 [3]): Active; Activity (HepG2 [4]): 7.6%; Activity (HepG2 [5]): Dose-dependent effect; Activity (HepG2 [6]): 74.5%; IC50 (HepG2 [7]): 60 µM; Activity (HepG2 [8]): Active; Activity (HepG2 [9]): Active; Activity (HepG2 [10]): 6.7%; Activity (HepG2 [11]): Active; Activity (HepG2 [12]): Active; Activity (HepG2 [13]): Active; Activity (HepG2 [14]): 11.2%
Nc1n[nH]c2c3c(oc(=O)c12)-c1cc(Cl)ccc1SC3,Non-toxic,inactive,,,,,,,,,,,,,,,,,,,
CC(=O)c1c(O)c2ccc3ccccc3c2oc1=O,,,,,,,,,,,,,,,,,,,,,CC50 (HepG2 [15]): 6.87 µg/mL; CC50 (HeLa): 6.87 µg/mL
COc1ccc2c(c1)-c1oc(=O)c3c(N)n[nH]c3c1CCO2,Non-toxic,inactive,Active,49.3,Active,Active,Dose-dependent effect,40,Active,Active,inactive,16.7,0.3,7.7,33.6,Active,3,inactive,0.2,inactive,Activity (COLO 205 [33]): Active; Activity (COLO 205 [34]): 9%
Nc1n[nH]c2c3c(oc(=O)c12)-c1ccccc1OCC3,Non-toxic,,,,,,,,,,,,,,,,,,,,Activity (HepG2 [3]): Active; Activity (HepG2 [4]): 9.2%; Activity (HepG2 [5]): Dose-dependent effect; Activity (HepG2 [6]): 70.4%; IC50 (HepG2 [7]): 80 µM; Activity (HepG2 [8]): Active; Activity (HepG2 [9]): Active; Activity (HepG2 [10]): 4.6%; Activity (HepG2 [11]): Active; Activity (HepG2 [12]): Active; Activity (HepG2 [13]): Active; Activity (HepG2 [14]): 15.8%
Nc1n[nH]c2c3c(oc(=O)c12)-c1ccc2ccccc2c1OCC3,Non-toxic,,Active,50.7,Active,Active,Dose-dependent effect,20,Active,Active,inactive,5.5,0.2,8.6,54.7,Active,7,inactive,1.7,inactive,Activity (COLO 205 [33]): Active; Activity (COLO 205 [34]): 7.5%
Cc1cc2c(cc1C)-c1oc(=O)c3c(N)n[nH]c3c1CCO2,Non-toxic,inactive,Active,63.5,Active,Active,Dose-dependent effect,60,Active,Active,inactive,9.4,0.1,4,50.6,Active,7.5,inactive,0.7,inactive,Activity (COLO 205 [33]): Active; Activity (COLO 205 [34]): 4.3%
Nc1n[nH]c2c3c(oc(=O)c12)-c1ccccc1SC3,Non-toxic,inactive,,,,,,,,,,,,,,,,,,,
